Assay results taken from patent publication US20210009557A1, “ACYCLIC CXCR4 INHIBITORS AND USES THEREOF” (X4 Pharmaceuticals, Inc., priority 2017, published 2021).
pIC50: −log10 of the molar value.

Experiments:
[1] = molecular target: T1, Jurkat cells expressing CXCR4 (Homo sapiens, UniProt P61073); assay: Chemokine (CXCL12-AF647) binding inhibition assay; conditions: CXCL12-AF647 25 ng/mL, read-out: IC50 CXCL-12 binding Jurkat
T1 construct: Jurkat cells expressing CXCR4; endogenous in cells; host or cells: Jurkat cells
T1 sequence (P61073 whole entry): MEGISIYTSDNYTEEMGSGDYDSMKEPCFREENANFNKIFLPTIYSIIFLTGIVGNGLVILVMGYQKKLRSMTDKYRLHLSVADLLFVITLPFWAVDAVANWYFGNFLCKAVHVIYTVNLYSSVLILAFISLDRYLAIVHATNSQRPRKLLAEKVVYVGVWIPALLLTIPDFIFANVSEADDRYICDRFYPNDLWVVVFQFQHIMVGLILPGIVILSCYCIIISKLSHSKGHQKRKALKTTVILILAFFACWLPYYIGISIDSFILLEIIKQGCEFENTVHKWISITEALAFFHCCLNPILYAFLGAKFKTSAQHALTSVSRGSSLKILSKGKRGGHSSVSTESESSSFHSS
Description: Jurkat cells expressing CXCR4 were washed once with assay buffer (Hanks' balanced salt solution with 20 mM HEPES buffer and 0.2% bovine serum albumin, pH 7.4) and then incubated for 15 min at room temperature with the test compounds diluted in assay buffer at dose-dependent concentrations. Subsequently, CXCL12-AF647 (25 ng/mL) was added to the compound-incubated cells. The cells were incubated for 30 min at room temperature. Thereafter, the cells were washed twice in assay buffer, fixed in 1% paraformaldehyde in PBS, and analyzed on the FL4 channel of a FACSCalibur flow cytometer equipped with a 635-nm red diode laser (Becton Dickinson, San Jose, Calif., USA).
The percentages of inhibition of CXCL12-AF647 binding were calculated according to the formula: [1−((MFI−MFINC)/(MFIPC−MFINC))]×100 where MFI is the mean fluorescence intensity of the cells incubated with CXCL12-AF647 in the presence of the inhibitor, MFINC is the mean fluorescence intensity measured in the negative control (i.e., autofluorescence of unlabeled cells), and MFIPC is the mean fluorescence intensity of the positive control (i.e., cells exposed to CXCL12-AF647 alone).

[2] = molecular target: T2, CXCR-4 transfected U87 cell line (U87.CXCR4) (Homo sapiens, UniProt P61073); assay: Intracellular CXCL-12-induced calcium mobilization assay (FLIPR); format: cell-based; conditions: U87.CXCR4 cells; CXCL-12 25-50 ng/mL; compounds added 15 minutes before; read-out: IC50 CXCL-12 Ca2+ flux U87.CXCR4+
T2 construct: expressed in transfected cells; host or cells: U87 cell line (U87.CXCR4)
T2 sequence (P61073 whole entry): as above
Description: Intracellular calcium mobilization induced by chemokines orchemokine-derived peptides were evaluated using a calcium responsive fluorescent probe and a FLIPR system. The CXCR-4 transfected U87 cell line (U87.CXCR4) cells were seeded in gelatine-coated black-wall 96-well plates at 20,000 cells per well and incubated for 12 hours. Cells were then loaded with the fluorescent calcium probe Fluo-2 acetoxymethyl at 4 μM final concentration in assay buffer (Hanks' balanced salt solution with 20 mM HEPES buffer and 0.2% bovine serum albumin, pH 7.4) for 45 min at 37′C. The intracellular calcium mobilization induced by the CXCL-12 (25-50 ng/mL) was then measured at 37° C. by monitoring the fluorescence as a function of time in all the wells simultaneously using a fluorometric imaging plate reader (FLIPR Tetra, Molecular Devices).

[3] = in vitro; conditions: human, Caco-2, pH 7.4
Description: The goal of this assay was to evaluate the intestinal absorption potential of drug candidates using Caco-2 cell lines.
Experimental Procedure • 1. Pre-warm Pre-warm HBSS Buffer in 37° C. water bath • 2. Sonicate Take compounds from −20° C., sonicate for a few minutes (no less than 1 minute) • 3. Solution preparation
For A-to-B Direction: • HBSS buffer with 0.3% DMSO and 5 μM LY: add 150 μL DMSO and 50 μL LY (5 mM) into 50 ml HBSS buffer (pH 7.4). • HBSS buffer with 0.1% DMSO and 5 μM LY: add 50 μL DMSO and 50 μL LY (5 mM) into 50 mL HBSS buffer (pH 7.4).
For B-to-A Direction: • HBSS buffer with 0.3% DMSO: add 150 μL DMSO into 50 ml HBSS buffer (pH 7.4). HBSS buffer with 0.1% DMSO: add 50 μL DMSO into 50 ml HBSS buffer (pH 7.4).
For A-to-B Direction: • Prepare HBSS buffer with 0.4% DMSO: add 200 μL DMSO into 50 ml HBSS buffer (pH 7.4).
For B-to-A Direction: • Prepare HBSS buffer with 0.4% DMSO and 5 μM LY: add 200 μL DMSO and 50 μL LY (5 mM) into 50 ml HBSS buffer (pH 7.4).
• 4. Measure TEER Take cell culture plate out of incubator, wash the cell monolayers with HBSS buffer, and then measure TEER values at Rm temperature. • 5. Centrifuge Centrifuge the compound solution (from step 3) at 4000 rpm for 5 min before loading to donor chambers. • 6. Dosing Add solution based on the volumes listed in the following table (make sure to take extra 100 μL of donor sample for T0 as Backup).
• 7. Apical LYTO samples To determine LY concentration in the apical chamber, take 100 μL sample from apical chambers into an opaque plate for LYTO. • 8. Pre-warm Pre-warm apical and basolateral plates at 37° C. for about 5 min, then begin transport by placing the apical plate onto basolateral plate. • 9. Incubation Keep the plates in incubator at 37° C. for 90 min. • 10.
• Prepare 1× solution: • 3 μL (20×)+57 μL of 0.4% DMSO HBSS+60 μL ACN with IS (Osalmid or Imipramine)—120 μL (1×) • 11. Transport termination Separate the apical plate from the basolateral plate after 90-min incubation. • 12. Measure LY Take 100 μL samples from basolateral plate to an opaque plate as LYT90. • 13. Measure LY concentrations for LYTO and LYT90 by Fluorometer (at excitation of 485 nm/emission of 535 nm). • 14.
Drug permeability: Papp=(VA/(Area×time))×([drug]accepter/(([drug]initial, donor)×Dilution Factor) • Where VA is the volume in the acceptor well, area is the surface area of the membrane and time is the total transport time in seconds.
For Millicell-24 Cell Culture Plates: surface area of the membrane=0.7 cm^2, VA=0.8 mL (A-to-B) or 0.4 mL (B-to-A)

SMILES | pIC50 [1] | pIC50 [2] | Papp A→B at 90 min, 10 μM [3] [×10⁻⁶ cm/s] | Papp B→A at 90 min, 10 μM [3] [×10⁻⁶ cm/s] | efflux ratio at 90 min, 10 μM [3]
CC(C)c1cccnc1CN(CCC(N)=O)Cc1ncccc1-c1ccccc1 [Compound I-47] | 6.00 to 7.00 | ≤ 6.00 | > 10 | > 10 | 0.1 to 10
Cn1c(CN(CCc2c[nH]cn2)[C@H]2CCCc3cccnc32)nc2ccccc21 [Compound I-25] | 7.00 to 11.00 | 7.00 to 11.00 | < 5 | > 10 | 10 to 30
Cc1cccnc1CN(CCc1ccccn1)Cc1ncccc1Cl [Compound I-5] | 7.00 to 11.00 | 6.00 to 7.00 | > 10 | > 10 | 0.1 to 10
NC(=O)CCN(Cc1ncccc1-c1ccccc1)[C@H]1CCCc2cccnc21 [Compound I-51] | 7.00 to 11.00 | ≤ 6.00 | 5 to 10 | > 10 | 0.1 to 10
Cn1c(CN(CCC(N)=O)[C@H]2CCCc3cccnc32)nc2ccccc21 [Compound I-22] | 7.00 to 11.00 | 6.00 to 7.00 | 5 to 10 | > 10 | 10 to 30
COc1ccc(CCN(Cc2ncccc2C)Cc2ncccc2C)nc1 [Compound I-32] | 7.00 to 11.00 | ≤ 6.00 | > 10 | > 10 | 0.1 to 10
Cc1cccnc1CN(CCn1ccccc1=O)Cc1ncccc1C [Compound I-58] | 6.00 to 7.00 | ≤ 6.00 | > 10 | > 10 | 0.1 to 10
Cc1cccnc1CN(CCc1c[nH]cn1)Cc1nc2ccc(F)cc2n1C [Compound I-41] | 7.00 to 11.00 | 6.00 to 7.00 | < 5 | > 10 | > 30
COc1cccnc1CCN(Cc1ncccc1C)Cc1ncccc1C [Compound I-56] | 7.00 to 11.00 | ≤ 6.00 | 5 to 10 | > 10 | 0.1 to 10
Cc1cccnc1CN(CCC(N)=O)C(C)c1ccccn1 (centres unmarked) [Compound I-13] | 7.00 to 11.00 | ≤ 6.00 | > 10 | > 10 | 0.1 to 10
CC(c1ccccn1)N(CCC(N)=O)Cc1ccccn1 (centres unmarked) [Compound I-11] | 6.00 to 7.00 | ≤ 6.00 | 5 to 10 | > 10 | 0.1 to 10
CC(c1ccccn1)N(CCc1cnc[nH]1)Cc1ccccn1 (centres unmarked) [Compound I-6] | 7.00 to 11.00 | ≤ 6.00 | < 5 | > 10 | 10 to 30
Clc1cccnc1CN(CCc1cnc[nH]1)Cc1ncccc1-c1ccccc1 [Compound I-39] | 7.00 to 11.00 | ≤ 6.00 | > 10 | > 10 | 0.1 to 10
Cc1cccnc1CN(CCc1c[nH]cn1)Cc1nccs1 [Compound I-52] | 6.00 to 7.00 | ≤ 6.00 | 5 to 10 | > 10 | 0.1 to 10
c1cnc2c(c1)CCC[C@@H]2N(CCC1CCCCO1)Cc1nc2ccccc2[nH]1 (some centres unmarked) [Compound I-16] | 6.00 to 7.00 | ≤ 6.00 | > 10 | > 10 | 0.1 to 10
NC(=O)CCN(Cc1nc2ccccc2[nH]1)[C@H]1CCCc2cccnc21 [Compound I-21, (S)-3-(((1H-benzo[d]imidazol-2-yl)methyl)(5,6,7,8-tetrahydroquinolin-8-yl)amino)propanamide] | 7.00 to 11.00 | 6.00 to 7.00 | < 5 | > 10 | > 30
CC(c1ccccn1)N(CCc1ccccn1)Cc1nc2ccccc2[nH]1 (centres unmarked) [Compound I-2, N-((1H-benzo[d]imidazol-2-yl)methyl)-2-(pyridin-2-yl)-N-(1-(pyridin-2-yl)ethyl)ethanamine] | 7.00 to 11.00 | 7.00 to 11.00 | > 10 | > 10 | 0.1 to 10
Cn1c(CN(CCc2c[nH]cn2)[C@H]2CCCc3cccnc32)nc2cc(F)ccc21 [Compound I-45] | 7.00 to 11.00 | ≤ 6.00 | < 5 | > 10 | 0.1 to 10
CC(c1ccccn1)N(CCC(N)=O)Cc1nc2ccccc2[nH]1 (centres unmarked) [Compound I-12, 3-(((1H-benzo[d]imidazol-2-yl)methyl)(1-(pyridin-2-yl)ethyl)amino)propanamide] | 6.00 to 7.00 | ≤ 6.00 | < 5 | > 10 | > 30
NC(=O)CCN(Cc1nccs1)[C@H]1CCCc2cccnc21 [Compound I-50] | ≤ 6.00 | ≤ 6.00 | > 10 | > 10 | 0.1 to 10
Cc1cccnc1CN(CCC(N)=O)Cc1ncccc1Cl [Compound I-15] | 6.00 to 7.00 | ≤ 6.00 | > 10 | > 10 | 0.1 to 10
COc1cccc(CCN(Cc2ncccc2C)Cc2ncccc2C)n1 [Compound I-31, 2-(6-Methoxypyridin-2-yl)-N,N-bis((3-methylpyridin-2-yl)methyl)ethan-1-amine] | 7.00 to 11.00 | 7.00 to 11.00 | > 10 | > 10 | 0.1 to 10
Cc1cccnc1CN(CCc1cnc[nH]1)Cc1ncccc1-c1ccccc1 [Compound I-57] | 7.00 to 11.00 | 6.00 to 7.00 | < 5 | > 10 | 0.1 to 10
CC(C)c1cccnc1CN(CCc1cnc[nH]1)Cc1ncccc1C(C)C [Compound I-38] | 6.00 to 7.00 | ≤ 6.00 | 5 to 10 | > 10 | 0.1 to 10
Cc1cccnc1CN(CCc1ccccn1)C(C)c1ccccn1 (centres unmarked) [Compound I-3] | 7.00 to 11.00 | 6.00 to 7.00 | > 10 | > 10 | 0.1 to 10
